{
  "source": "patent US20150113683A1",
  "about": "“METHODS FOR PLANT TRANSFORMATION USING SPECTINOMYCIN SELECTION” (Monsanto Technology LLC, priority 2007, published 2015)",
  "key": {"soybean explants [1]": {"test_system": "soybean explants", "experiment": "TDZ in inoculation/co-culture medium: shoots harvested and transformed rooted shoots, glyphosate selection", "type": "cell-based, soybean (Glycine max)"}, "dry soybean explants": {"test_system": "dry soybean explants", "experiment": "Transformation frequency of dry soybean explants using glyphosate or spectinomycin as selective agent", "type": "cell-based", "conditions": "Glyphosate 50 uM in regeneration medium; dry soybean explants"}, "soybean explants [2]": {"test_system": "soybean explants", "experiment": "TDZ during inoculation/co-cultivation: GFP-positive bud/shoot development, glyphosate selection", "type": "cell-based, soybean (Glycine max)", "conditions": "for # Explants with GFP+ buds/shoots: 200 explants examined"}, "soybean explants [3]": {"test_system": "soybean explants", "experiment": "BAP or TDZ for 4 days after co-cultivation: GFP-positive bud development, dicamba selection", "type": "cell-based, soybean (Glycine max)", "conditions": "for # Explants w/ GFP+ buds / % Explants w/ GFP+ buds: 0.01 mg/L dicamba selection, 24 DAI; for effect on final transformation frequencies (TFs): addition of cytokinin with dicamba selection"}, "soybean explants [4]": {"test_system": "soybean explants", "experiment": "TDZ during inoculation and co-culture: development of GUS-positive buds", "type": "cell-based, soybean (Glycine max)", "conditions": "for # Explants w/ GUS+ buds (13 DAI): 96 explants assayed"}, "[5]": {"test_system": "3 months stored dry soybean explants", "experiment": "Stored dry soybean explants, spectinomycin, pre-culture: TF", "type": "cell-based", "conditions": "nystatin 50 ppm and thiabendazole 10 ppm dissolved in DMSO added together to INO co-culture media"}, "soybean explants [6]": {"test_system": "soybean explants", "experiment": "BAP during co-culture and post co-culture delay: rooted plants and TF, spectinomycin selection", "type": "cell-based, soybean (Glycine max)", "conditions": "150 mg/L spectinomycin selection", "method": "Soybean explants were inoculated and co-cultured with Agrobacterium harboring pMON96999 (FIG. 2). The inoculation and co-culture medium were supplemented with 0, 1, 2, 3, 4 or 5 mg/L BAP. […] The explants were then transferred onto selection medium (the same as the delay medium but containing 150 mg/L spectinomycin) for shoot induction and selection. […] To determine how many explants could develop transformed shoots without BAP treatment, explant tissues were assayed for GUS activity at 42 days after inoculation. […] Most of them were axillary, and some of them were apparently chimeric. The explants treated with BAP had much less or non-elongated primary shoots, and more de novo shoots. Many of the shoots elongated on the selection medium and were harvested to induce roots on the root induction medium also containing 150 mg/L spectinomycin as in protocol “A”."}, "[7]": {"conditions": "TDZ 0.5 mg/L in inoculation and co-cultivation medium"}, "[8]": {"conditions": "TDZ 1.0 mg/L in inoculation and co-cultivation medium"}, "[9]": {"conditions": "TDZ 1.5 mg/L in inoculation and co-cultivation medium"}, "[10]": {"conditions": "TDZ 2.0 mg/L in inoculation and co-cultivation medium"}, "[11]": {"conditions": "TDZ 3.0 mg/L in inoculation and co-cultivation medium"}, "[12]": {"conditions": "TDZ 1 mg/L for inoculation/co-culture, glyphosate selection"}, "[13]": {"conditions": "TDZ 2 mg/L for inoculation/co-culture, glyphosate selection"}, "[14]": {"conditions": "TDZ 3 mg/L for inoculation/co-culture, glyphosate selection"}, "[15]": {"conditions": "1 mg/L for 4 days after co-cultivation"}, "[16]": {"conditions": "2 mg/L for 4 days after co-cultivation"}, "[17]": {"conditions": "TDZ 0.5 mg/L for inoculation & co-culture"}, "[18]": {"conditions": "TDZ 1.0 mg/L for inoculation & co-culture"}, "[19]": {"conditions": "TDZ 2.0 mg/L for inoculation & co-culture"}, "[20]": {"conditions": "BAP 1 mg/L in co-culture & 4-d post co-culture delay medium"}, "[21]": {"conditions": "BAP 2 mg/L in co-culture & 4-d post co-culture delay medium"}, "[22]": {"conditions": "BAP 3 mg/L in co-culture & 4-d post co-culture delay medium"}, "[23]": {"conditions": "BAP 4 mg/L in co-culture & 4-d post co-culture delay medium"}, "[24]": {"conditions": "BAP 5 mg/L in co-culture & 4-d post co-culture delay medium"}},
  "note": "“And” between values parts separate entries of the source, which are not always exact repeats. Equal values may be shown once.",
  "data": [
    {"molecule": "O=C(O)CNCP(=O)(O)O", "note": "[Glyphosate, glyphosate]", "values": [
      {"measurement": "transformation frequency", "setting": "soybean explants [1]; comparable experiments utilizing glyphosate as selective agent", "result": "~2", "unit": "%"},
      {"measurement": "% TF", "setting": "dry soybean explants", "result": 2.00, "unit": "%"}
    ]},
    {"molecule": "O=C(Nc1ccccc1)Nc1cnns1", "note": "[TDZ, thidiazuron]", "values": [
      {"measurement": "Frequency of explants with GFP+ buds/shoots", "setting": "soybean explants [2]; [7]", "result": 18, "unit": "%"},
      {"measurement": "# Explants with GFP+ buds/shoots", "setting": "soybean explants [2]; [7]", "result": 36},
      {"measurement": "Frequency of explants with GFP+ buds/shoots", "setting": "soybean explants [2]; [8]", "result": 24, "unit": "%"},
      {"measurement": "# Explants with GFP+ buds/shoots", "setting": "soybean explants [2]; [8]", "result": 48},
      {"measurement": "Frequency of explants with GFP+ buds/shoots", "setting": "soybean explants [2]; [9]", "result": 25, "unit": "%"},
      {"measurement": "# Explants with GFP+ buds/shoots", "setting": "soybean explants [2]; [9]", "result": 50},
      {"measurement": "Frequency of explants with GFP+ buds/shoots", "setting": "soybean explants [2]; [10]", "result": 30, "unit": "%"},
      {"measurement": "# Explants with GFP+ buds/shoots", "setting": "soybean explants [2]; [10]", "result": 60},
      {"measurement": "Frequency of explants with GFP+ buds/shoots", "setting": "soybean explants [2]; [11]", "result": 32, "unit": "%"},
      {"measurement": "# Explants with GFP+ buds/shoots", "setting": "soybean explants [2]; [11]", "result": 64},
      {"measurement": "% Transformed rooted shoots", "setting": "soybean explants [1]; TDZ 0.5 mg/L for inoculation/co-culture, glyphosate selection", "result": "1.1% and 1.4% and 4.3%"},
      {"measurement": "% Transformed rooted shoots", "setting": "soybean explants [1]; [12]", "result": "1.3% and 1.6% and 0.5% and 3.2% and 1%"},
      {"measurement": "Shoots harvested, % Shooting Frequency", "setting": "soybean explants [1]; [12]", "result": "4.9% and 7% and 3.5% and 13% and 6.8%"},
      {"measurement": "% Transformed rooted shoots", "setting": "soybean explants [1]; [13]", "result": "0.1% and 1.3% and 0.9% and 0.5%"},
      {"measurement": "Shoots harvested, % Shooting Frequency", "setting": "soybean explants [1]; [13]", "result": "1.4% and 4.9% and 5.1% and 6.7% and 1.9%"},
      {"measurement": "% Transformed rooted shoots", "setting": "soybean explants [1]; [14]", "result": "0.6% and 0.7%"},
      {"measurement": "Rooted shoots, Total #", "setting": "soybean explants [1]; [14]", "result": "5 and 8"},
      {"measurement": "Shoots harvested, % Shooting Frequency", "setting": "soybean explants [1]; [14]", "result": "4.7% and 1.9%"},
      {"measurement": "Shoots harvested, Total #", "setting": "soybean explants [1]; [14]", "result": "40 and 20"},
      {"measurement": "# Explants w/ GFP+ buds", "setting": "soybean explants [3]; [15]", "result": 71},
      {"measurement": "% Explants w/ GFP+ buds", "setting": "soybean explants [3]; [15]", "result": 18.3, "unit": "%"},
      {"measurement": "# Explants w/ GFP+ buds", "setting": "soybean explants [3]; [16]", "result": 53},
      {"measurement": "% Explants w/ GFP+ buds", "setting": "soybean explants [3]; [16]", "result": 13.8, "unit": "%"},
      {"measurement": "effect on final transformation frequencies (TFs)", "setting": "soybean explants [3]", "result": "no visible effect"},
      {"measurement": "% Explants with GUS+ buds (13 DAI)", "setting": "soybean explants [4]; [17]", "result": 18.8, "unit": "%"},
      {"measurement": "# Explants w/ GUS+ buds (13 DAI)", "setting": "soybean explants [4]; [17]", "result": 18},
      {"measurement": "% Explants with GUS+ buds (13 DAI)", "setting": "soybean explants [4]; [18]", "result": 35.4, "unit": "%"},
      {"measurement": "# Explants w/ GUS+ buds (13 DAI)", "setting": "soybean explants [4]; [18]", "result": 34},
      {"measurement": "% Explants with GUS+ buds (13 DAI)", "setting": "soybean explants [4]; [19]", "result": 50.0, "unit": "%"},
      {"measurement": "# Explants w/ GUS+ buds (13 DAI)", "setting": "soybean explants [4]; [19]", "result": 48}
    ]},
    {"molecule": "C[C@@H]1[C@H](O)[C@@H](C)/C=C/C=C/CC/C=C/C=C/C=C/C=C/C(O[C@H]2O[C@H](C)[C@@H](O)[C@H](N)[C@@H]2O)CC2O[C@](O)(CC(O)C(O)CCC(O)CC(O)CC(O)CC(=O)O[C@H]1C)CC(O)C2C(=O)O", "note": "(stereo partly shown) [nystatin]", "values": [
      {"measurement": "health of explants", "setting": "[5]", "result": "improved the health of explants"}
    ]},
    {"molecule": "c1ccc(CNc2ncnc3nc[nH]c23)cc1", "note": "[BAP, 6-Benzylaminopurine]", "values": [
      {"measurement": "# Explants w/ GFP+ buds", "setting": "soybean explants [3]; [15]", "result": 12},
      {"measurement": "% Explants w/ GFP+ buds", "setting": "soybean explants [3]; [15]", "result": 3.7, "unit": "%"},
      {"measurement": "# Explants w/ GFP+ buds", "setting": "soybean explants [3]; [16]", "result": 11},
      {"measurement": "% Explants w/ GFP+ buds", "setting": "soybean explants [3]; [16]", "result": 3.3, "unit": "%"},
      {"measurement": "effect on final transformation frequencies (TFs)", "setting": "soybean explants [3]", "result": "no visible effect"},
      {"measurement": "# Rooted plants", "setting": "soybean explants [6]; [20]", "result": 103},
      {"measurement": "% TF", "setting": "soybean explants [6]; [20]", "result": 26.1, "unit": "%"},
      {"measurement": "# Rooted plants", "setting": "soybean explants [6]; [21]", "result": 94},
      {"measurement": "% TF", "setting": "soybean explants [6]; [21]", "result": 27.1, "unit": "%"},
      {"measurement": "# Rooted plants", "setting": "soybean explants [6]; [22]", "result": 87},
      {"measurement": "% TF", "setting": "soybean explants [6]; [22]", "result": 24.9, "unit": "%"},
      {"measurement": "# Rooted plants", "setting": "soybean explants [6]; [23]", "result": 132},
      {"measurement": "% TF", "setting": "soybean explants [6]; [23]", "result": 30.3, "unit": "%"},
      {"measurement": "# Rooted plants", "setting": "soybean explants [6]; [24]", "result": 116},
      {"measurement": "% TF", "setting": "soybean explants [6]; [24]", "result": 26.6, "unit": "%"}
    ]},
    {"molecule": "c1ccc2[nH]c(-c3cscn3)nc2c1", "note": "[thiabendazole]", "values": [
      {"measurement": "health of explants", "setting": "[5]", "result": "improved the health of explants"}
    ]}
  ]
}
